The record followed here is publication PMC7346717 (Nature structural & molecular biology, 2018).

Assay [1] concerns the target T1, ΔN-drSLC38A9 (ΔN-SLC38A9) (Danio rerio, UniProt Q08BA4, N227Q/N235Q/N252Q/N263Q).
T1 sequence (Q08BA4 71-549 N227Q/N235Q/N252Q/N263Q): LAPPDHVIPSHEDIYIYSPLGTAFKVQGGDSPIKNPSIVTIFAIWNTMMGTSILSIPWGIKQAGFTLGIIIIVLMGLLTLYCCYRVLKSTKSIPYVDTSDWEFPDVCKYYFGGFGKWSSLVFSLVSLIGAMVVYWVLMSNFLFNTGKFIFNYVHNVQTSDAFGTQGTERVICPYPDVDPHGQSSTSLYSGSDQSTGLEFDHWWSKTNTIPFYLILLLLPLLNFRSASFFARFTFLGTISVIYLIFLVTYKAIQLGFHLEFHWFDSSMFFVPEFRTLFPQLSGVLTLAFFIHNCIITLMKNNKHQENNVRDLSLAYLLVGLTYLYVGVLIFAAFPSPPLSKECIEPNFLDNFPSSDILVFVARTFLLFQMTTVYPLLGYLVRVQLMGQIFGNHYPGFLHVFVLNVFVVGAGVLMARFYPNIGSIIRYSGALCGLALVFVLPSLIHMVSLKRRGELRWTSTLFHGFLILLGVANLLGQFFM
Kind of assay: proteoliposome radioligand uptake. In kind it is biochemical. The following applies: 0.5 μM [3H]L-arginine, labelled compound; NaCl, MES pH 5.0.

Assay [2] has as its target T2, drSLC38A9 (full-length, wild-type) (Danio rerio, UniProt Q08BA4).
T2 sequence (Q08BA4 1-549): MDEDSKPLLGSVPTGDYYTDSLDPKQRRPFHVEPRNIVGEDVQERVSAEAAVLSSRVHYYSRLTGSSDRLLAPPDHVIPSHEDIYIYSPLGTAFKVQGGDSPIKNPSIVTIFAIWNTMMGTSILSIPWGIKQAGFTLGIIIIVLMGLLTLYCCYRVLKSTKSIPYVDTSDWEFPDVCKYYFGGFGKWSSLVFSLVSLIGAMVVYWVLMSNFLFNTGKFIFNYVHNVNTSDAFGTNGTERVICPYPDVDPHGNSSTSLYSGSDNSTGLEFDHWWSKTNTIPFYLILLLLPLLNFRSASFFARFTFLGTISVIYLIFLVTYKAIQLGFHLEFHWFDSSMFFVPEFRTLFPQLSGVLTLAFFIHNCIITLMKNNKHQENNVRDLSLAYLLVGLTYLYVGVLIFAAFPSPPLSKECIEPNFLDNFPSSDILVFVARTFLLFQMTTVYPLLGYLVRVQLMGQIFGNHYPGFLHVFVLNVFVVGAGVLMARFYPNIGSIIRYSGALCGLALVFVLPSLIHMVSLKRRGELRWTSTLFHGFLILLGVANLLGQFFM
Kind of assay: proteoliposome radioligand uptake. Format: biochemical. The following applies: 0.5 μM [3H]L-arginine, labelled compound; Na+ (not K+ or NMG), pH 5.0.

With `N=C(N)NCCC[C@H](N)C(=O)O` [arginine], the proteoliposome radioligand uptake entry in assay [1] is “the truncated drSLC38A9 protein is active and able to bind arginine similarly to the wild-type”; in assay [2], “robust uptake was observed in the presence of sodium”.
